Results reported in patent US20040214864A1, “Novel compounds” (priority 2000, published 2004).
Counter-ions that a name gives are not always drawn.

Row | SMILES | melting point [°C]
1 | O=C(c1ccc(-c2nn(Cc3cccc(Cl)c3)c(=S)[nH]2)cc1)N1CCN(c2cccc(Cl)c2)CC1 (as salt: hydrochloride) [Example 8, 2-[(3-Chlorophenyl)methyl]-5-[4-[[4-(3-chlorophenyl)-1-piperazinyl]carbonyl]phenyl]-2,4-dihydro-3H-1,2,4-triazole-3-thione] | 260 to 262
2 | C[C@@H](NC(=O)c1ccc(-c2nn(Cc3cccc(Cl)c3)c(=S)[nH]2)cc1)[C@@H](O)c1ccccc1 [Example 6, [1R, 2S]-4-[1-[(3-Chlorophenyl)methyl]-4,5-dihydro-5-thioxo-1H-1,2,4-triazol-3-yl]-N-(2-hydroxy-1-methyl-2-phenylethyl)-benzamide] | 220 to 222
3 | COC(=O)C(CO)NC(=O)c1cccc(-c2nn(Cc3cccc(Cl)c3)c(=S)[nH]2)c1 (stereo not shown) [Example 14] | 188 to 196
4 | CN(C)CC(C)(C)CNC(=O)c1cccc(-c2nn(Cc3cccc(Cl)c3)c(=S)[nH]2)c1 [Example 15, 3-{1-[(3-Chlorophenyl)methyl]-1,2-dihydro-5thioxo-1H[1,2,4]triazol-3-yl}-N-(2-methyl-2-dimethylaminomethylpropyl)benzamide] | 173 to 175
5 | CN(C)C(=O)c1cccc(-c2nn(Cc3cccc(Cl)c3)c(=S)[nH]2)c1 [Example 16, 3-{1-[(3-Chlorophenyl)methyl]-1,2-dihydro-5thioxo-1H[1,2,4]triazol-3-yl}-N,N-dimethylbenzamide] | 184 to 187
6 | N#CCNC(=O)c1cccc(Cn2nc(-c3ccccc3Cl)[nH]c2=S)c1 [Example 17] | 178 to 182
7 | O=C(NCCF)c1cccc(Cn2nc(-c3ccccc3Cl)[nH]c2=S)c1 [Example 18] | 165 to 168

Other lines, results leading:

Row | melting point [°C] | SMILES
8 | 302 | O=C(O)c1ccc(-c2nn(Cc3cccc(Cl)c3)c(=S)[nH]2)cc1 [Example 1, 4-[1-[(3-Chlorophenyl)methyl]-4,5-dihydro-5-thioxo-1H-1,2,4-triazol-3-yl]-benzoic acid]
9 | 263.5 to 264.5 | COC(=O)c1ccc(-c2nn(Cc3cccc(Cl)c3)c(=S)[nH]2)cc1 [Example 2, Methyl 4-[1-[(3-Chlorophenyl)methyl]-4,5-dihydro-5-thioxo-1H-1,2,4-triazol-3-yl]-benzoate]
10 | 310 to 312 | NC(=O)c1ccc(-c2nn(Cc3cccc(Cl)c3)c(=S)[nH]2)cc1 [Example 3, 4-[1-[(3-Chlorophenyl)methyl]-4,5dihydro-5-thioxo-1H-1,2,4-triazol-3-yl]-benzamide]
11 | 302 to 304 | CN(C)C(=O)c1ccc(-c2nn(Cc3cccc(Cl)c3)c(=S)[nH]2)cc1 [Example 4, 4-[1-[(3-Chlorophenyl)methyl]-4,5-dihydro-5-thioxo-1H-1,2,4-triazol-3-yl]-N,N-dimethyl-benzamide]
12 | 218 to 220 | CC(C)CCNC(=O)c1ccc(-c2nn(Cc3cccc(Cl)c3)c(=S)[nH]2)cc1 [Example 5, 4-[1-[(3-Chlorophenyl)methyl]-4,5-dihydro-5-thioxo-1H-1,2,4-triazol-3-yl]-N-(3-methylbutyl)-benzamide]
13 | 188 to 190 | O=C(NCCO)c1ccc(-c2nn(Cc3cccc(Cl)c3)c(=S)[nH]2)cc1 [Example 7, 4-[1-[(3-Chlorophenyl)methyl]-4,5-dihydro-5-thioxo-1H-1,2,4-triazol-3-yl]-N-(2-hydroxyethyl)-benzamide]
14 | 234 to 238 | O=C(O)c1ccccc1-c1nn(Cc2cccc(Cl)c2)c(=S)[nH]1 [Example 11, 2-[1-[(3-Chlorophenyl)methyl]-4,5-dihydro-5-thioxo-1H-1,2,4-triazol-3-yl]-benzoic acid]
15 | 314 to 316 | O=C(O)c1cccc(-c2nn(Cc3cccc(Cl)c3)c(=S)[nH]2)c1 [Example 12, 3-[1-[(3-Chlorophenyl)methyl]-4,5-dihydro-5-thioxo-1H-1,2,4-triazol-3-yl]-benzoic acid]
16 | 281 to 283 | NS(=O)(=O)c1ccc(-c2nn(Cc3cccc(Cl)c3)c(=S)[nH]2)cc1 [Example 13, 4-[1-[(3-chlorophenyl)methyl]-4,5dihydro-5-thioxo-1H-1,2,4-triazol-3-yl]-benzenesulfonamide]
